Assay results from US7452865B2, “Antagonistic analogs of GH RH (2003)” (The Administrare's of the Tulane Educational Fund, priority 2004, dated 2008).

Test system: hGH-RH(1-29)NH2 induced GH release
Assay: Inhibition of GH release in superfused rat pituitary system
Type: cell-based
Procedure: The analogs were tested in vitro in a test described earlier (S. Vigh and A. V Schally, Peptides 5:241-[…], 1984) with modification (Z. Rekasi and A. V. Schally, P.N.A.S. 90:2146-2149, 1993).
Briefly, the cells are preincubated with peptides for 9 minutes (3 mL) at various concentrations. Immediately after the incubation, 1 nM hGH-RH(1-29)NH2 is administered for 3 minutes (1 mL) 10 minute response). To check the duration of the antagonistic effect of the analogue, 1 nM hGH-RH(1-29)NH2 is applied 30, 60, 90, and 120 minutes later for 3 minutes [30, 60, 90, 120 min responses]. Net integral values of the GH responses are evaluated. GH responses are compared to and expressed as percent of the original GH response induced by 1 nM GH-RH(1-29)NH2 The effect of the new antagonists are compared to that of [Ac-Tyr^1, D-Arg^2]hGH-RH(1-29)NH2, the “Standard antagonist”.
Rat GH levels in aliquots of undiluted and diluted superfusion samples were measured by double-antibody radioimmunoassay using materials supplied by the National Hormone and Pituitary Program, Baltimore, Md. The results of RIA were analyzed with a computer program developed in our institute (V. Csernus and A. V. Schally, in Neuroendocrine Research Methods, Harwood Academic (Greenstein, B. D. ed., London, pp. 71-109, 1991), hereby incorporated by reference.

[1] = antagonist 30 nM, 1 nM hGH-RH(1-29)NH2 at 0 min
[2] = antagonist 30 nM, 1 nM hGH-RH(1-29)NH2 at 30 min
[3] = antagonist 30 nM, 1 nM hGH-RH(1-29)NH2 at 60 min
[4] = antagonist 30 nM, 1 nM hGH-RH(1-29)NH2 at 90 min
[5] = antagonist 30 nM, 1 nM hGH-RH(1-29)NH2 at 120 min

Substance | GH response (% of control) 0 min [1] | GH response (% of control) 30 min [2] | GH response (% of control) 60 min [3] | GH response (% of control) 90 min [4] | GH response (% of control) 120 min [5] | GH response (% of control) 0 min (antagonist 10 nM, 0 min) | GH response (% of control) 30 min (antagonist 10 nM, 30 min) | GH response (% of control) 60 min (antagonist 10 nM, 60 min) | GH response (% of control) 90 min (antagonist 10 nM, 90 min) | GH response (% of control) 120 min (antagonist 10 nM, 120 min) | endocrine antagonistic potency: inhibition of the GH release stimulated by hGH-RH(1-29)NH2 (in words) (general statement, in vitro and in vivo)
[PhAc-Tyr^1, D-Arg^2, Phe(pCl)^6, D-Ala^8, Arg^9, Abu^15, Nle^27, D-Arg^28, Har^29]hGH-RH(1-29)NH2 [Peptide 26] | 20 % of control | 43 % of control | 66 % of control | 48 % of control | 44 % of control |  |  |  |  |  | 
[HOOC(CH2)10CO-Tyr^1, D-Arg^2, Phe(pCl)^6, Arg^9, Abu^15, Nle^27, D-Arg^28, Har^29]hGH-RH(1-29)NH2 [Peptide 9] | 47 % of control | 43 % of control | 66 % of control | 63 % of control | 58 % of control |  |  |  |  |  | 
[PhAc-Tyr^1, D-Arg^2, Phe(pCl)^6, Arg^9, Amp^10, Abu^15, Nle^27, D-Arg^28, Har^29]hGH-RH(1-29)NH2 [Peptide 30] | 18 % of control | 11 % of control | 7 % of control | 7 % of control | 8 % of control | 60 % of control | 24 % of control | 34 % of control | 32 % of control | 53 % of control | high endocrine antagonistic potencies
[CH3(CH2)14CO-Tyr^1, D-Arg^2, Phe(pCl)^6, Arg^9, Abu^15, Nle^27, D-Arg^28, Har^29]hGH-RH(1-29)NH2 [Peptide 12] | 35 % of control | 30 % of control | 35 % of control | 51 % of control | 43 % of control |  |  |  |  |  | 
[CH3(CH2)12CO-Tyr^1, D-Arg^2, Phe(pCl)^6, Arg^9, Abu^15, Nle^27, D-Arg^28, Har^29]hGH-RH(1-29)NH2 [Peptide 10] | 60 % of control | 30 % of control | 36 % of control | 37 % of control | 44 % of control |  |  |  |  |  | 
[Hca-Tyr^1, D-Arg^2, Phe(pCl)^6, Har^9, Tyr(Me)^10, Abu^15, Nle^27, D-Arg^28, Har^29, Har^30]hGH-RH(1-30)NHEt [Peptide 56] | 76 % of control | 83 % of control | 92 % of control | 80 % of control | 68 % of control |  |  |  |  |  | 
[Ipa-Tyr^1, D-Arg^2, Phe(pCl)^6, Har^9, Tyr(Me)^10, Abu^15, Nle^27, D-Arg^28, Har^29, Har^30]hGH-RH(1-30)NH2 [Peptide 55] | 93 % of control | 63 % of control | 96 % of control | 61 % of control | 93 % of control |  |  |  |  |  | 
[Hca-Tyr^1, D-Arg^2, Phe(pCl)^6, Har, Tyr(Me)^10, Abu^15, Nle^27, D-Arg^28, Har^29, Har^30]hGH-RH(1-30)NH2 [Peptide 53] | 43 % of control | 42 % of control | 40 % of control | 36 % of control | 46 % of control |  |  |  |  |  | 
